Laboratory results reported in paper PMC6382696, “Drug Repurposing: The Anthelmintics Niclosamide and Nitazoxanide Are Potent TMEM16A Antagonists That Fully Bronchodilate Airways” (Frontiers in Pharmacology, 2019).
Several values for one entry are separate records, joined by “and”; a condition that tells them apart may be missing. Equal values may be shown once. Entries after “also recorded” stand apart in the source; their conditions may differ. Read-outs that look alike come from different tables or passages of the source.

Assays:
[1] = system: Wnt/β-catenin transcription; assay: Wnt/β-catenin transcription TOPFlash reporter assay; assay type: cell-based; details: Wnt TopFlash IC50 over TMEM16A eYFP IC50
hTMEM16A (abc) = target: T1, hTMEM16A (abc) (Homo sapiens, UniProt Q5XXA6, DEL476-501); assay: medchem TMEM16A halide-sensitive YFP assay, 22-point dose-response; assay type: cell-based; design: expressed in transfected cells; details: iodide as permeant anion
T1 sequence (Q5XXA6 with tags, fused parts or gaps isoform Q5XXA6-5 DEL539-564): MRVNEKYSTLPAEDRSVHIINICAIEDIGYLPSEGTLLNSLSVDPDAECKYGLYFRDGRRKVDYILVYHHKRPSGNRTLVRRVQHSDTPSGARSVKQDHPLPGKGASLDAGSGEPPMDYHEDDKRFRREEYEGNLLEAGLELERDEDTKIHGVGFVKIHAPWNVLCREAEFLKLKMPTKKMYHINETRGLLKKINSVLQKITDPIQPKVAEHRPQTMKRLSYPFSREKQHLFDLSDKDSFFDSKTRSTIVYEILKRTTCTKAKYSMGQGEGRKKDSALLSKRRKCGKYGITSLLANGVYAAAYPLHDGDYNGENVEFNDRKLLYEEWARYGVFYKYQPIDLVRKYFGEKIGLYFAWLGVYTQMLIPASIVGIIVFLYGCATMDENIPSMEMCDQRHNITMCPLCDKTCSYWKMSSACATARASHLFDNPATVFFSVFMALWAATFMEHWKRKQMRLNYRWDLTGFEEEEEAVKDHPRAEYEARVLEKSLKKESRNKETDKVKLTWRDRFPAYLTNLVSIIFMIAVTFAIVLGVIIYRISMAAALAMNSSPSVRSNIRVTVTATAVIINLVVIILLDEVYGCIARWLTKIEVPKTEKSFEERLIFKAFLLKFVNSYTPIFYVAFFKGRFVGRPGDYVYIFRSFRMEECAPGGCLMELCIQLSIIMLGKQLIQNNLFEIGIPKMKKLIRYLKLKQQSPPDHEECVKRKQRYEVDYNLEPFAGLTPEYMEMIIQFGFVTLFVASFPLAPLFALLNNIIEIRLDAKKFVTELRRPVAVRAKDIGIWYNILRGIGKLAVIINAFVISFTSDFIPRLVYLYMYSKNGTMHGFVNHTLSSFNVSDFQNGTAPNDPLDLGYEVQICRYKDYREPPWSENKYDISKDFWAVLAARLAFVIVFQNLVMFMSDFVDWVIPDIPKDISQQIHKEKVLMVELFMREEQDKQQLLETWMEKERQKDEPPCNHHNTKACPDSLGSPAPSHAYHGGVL
Method: The TMEM16A HEK293T eYFP (H149Q, I153L) stable cell line for medchem support was generated by transfecting 10 μg of linearized hTMEM16A(abc) DNA constructs into HEK293T eYFP (H149Q,I153L) stable cells. The transfected cells were cultured under 200 μg/ml of hygromycin B selection for 20 days and the stable pool was single cell seeded in 96 well plate and duplicated plate were made after single cell clones were formed. YFP function assay were performed on duplicated plate and clones producing higher changes in fluorescence from the YFP assay were chosen for further expansion to form a stable cell line.
Plates were incubated for 24 h at 37°C with 5% CO2. On the assay day, medium was removed and replaced with 20 μl/well of assay buffer (Hank’s Balanced Salt Solution with 10 mM HEPES pH 7.4), 10 μl/well of 40x diluted compounds was added to assay plate and it was incubated at room temperature for 30 min, after which baseline fluorescence was read in the FLIPR instrument for 10 s. Then, 5 μl/well of a 3x trigger solution (24 mM iodide, 3 μM ionomycin in assay buffer) was added and the fluorescence kinetic trace was recorded for 2 min.

[2] = system: Wnt/β-catenin transcription; details: ref Mook et al. (2015); read-out: Mook et al. Wnt/β-catenin TopFlash (IC50); cited from earlier work
mouse tracheal rings [3] = assay: Bronchodilation of cytokine-treated mouse tracheal rings; details: overnight IL-1β, TNFα, IL-13 100 ng/ml, EC75 carbachol
Method: Airway rings were treated overnight in 2 ml DMEM + PSG/HEPES/AA/NaPyr buffer alone or with the same solution supplemented with 100 ng/ml of mTNFα, mIL-13 and mIL-1β. Unlike like the typical Wake-Up protocol and ring qualifying tests, mouse tracheal rings were not exposed to KPSS and rings were not observed to relax with a β-agonist following discovery of CCh dose-responses. After several washes with PSS, EC75 concentrations of CCh were used to pre-contract rings for >30 min alone or in the presence of cytokines.

mouse tracheal rings [4] = assay: Wire myograph bronchodilation of carbachol pre-contracted mouse tracheal rings
Method: The trachea from C57 BL/6 mice was dissected and collected in PBS with Mg^2+ and Ca^2+. After further trimming, two 2 mm sections (rings) per trachea were then placed in DMEM media containing PSG/HEPES/AA/NaPyr for 1 h and used immediately or maintained overnight at 37°C in a humidified incubator with 5% CO2. Rings were then mounted into chambers of DMT wire myograph containing L-shaped mounting pins with 2–3 mN of force applied to secure rings on the pins and the rings were allowed to equilibrate for 25–30 min in a physiological saline buffer (PSS, 130 mM NaCl, 4.7 mM KCl, 1.2 mM MgS04, 14.9 mM NaHCO3, 1.2 mM KH2PO4, 0.026 mM EDTA, 1.6 mM CaCl2, 5.5 mM Dextrose). Throughout the experiment, rings were maintained at physiological temperature and gas conditions by heating buffer reservoir and chamber to 37°C and bubbling a 95% O2, 5% CO2 gas mixture into chamber.
After equilibration, a standard tissue “Wake-Up” procedure was applied by altering tension and then treatment with elevated potassium as follows: 3 mN tension was applied for 5–10 min, then another 2–3 mN tension to total of 5.5 mN and then to 7–8 mN for another 5 min; the tissue pre-tension was then set to 5 mN and allowed to equilibrate for 5–10 min followed by the removal of the PSS buffer and addition of KPSS (60 mM KCl, 74.7 mM NaCl in PSS solution), with force changes monitored until they reached a plateau. The tissue was then washed four times with PSS over 5 min and the KPSS treatment and washes repeated; the tissue was then allowed to sit in PSS for 10 min and the tension was set to 5 mN.
The tissue was then washed three times and then three times more with PSS for 5 min until tension returned to baseline.
Only tissue that passed the qualification tests above advanced to studies on test article compounds. […] For standard ascending dose-response studies on TMEM16A antagonists, an EC75 or EC95 concentration of CCh was used to pre-contract tracheal rings.

human bronchial rings = assay: Wire myograph bronchodilation of histamine pre-contracted human bronchial rings (Biopta)
Excerpt: Details of bronchodilator studies shown in Figure 5H, 6 and Supplementary Figure 40 are provided below as part of the end assay report on Study CUR011 by Lee Christie (Biopta). Donors with any of the following conditions were excluded from the study: asthma, COPD, emphysema, lung cancer, cystic fibrosis, pulmonary fibrosis, pulmonary hypertension, pneumonia. Donors were also excluded if they had smoked in the past 12 months. Non-transplantable lung tissue was acquired from organ donors post mortem. Any macroscopically diseased/necrotic tissue was rejected. […] Human airway rings were set up under isometric conditions on a wire myograph in order to examine the influence of the test articles on bronchodilation. In order to assess tissue viability, the airways were challenged with carbachol (10 μM) and then isoprenaline (10 μM) to assess their constriction and relaxation responses, respectively. […] Viable airways were pre-constricted with histamine (10 μM), then exposed to one of the following cumulative concentration response curves (CCRCs): positive control, vehicle (water, volume matched to positive control), test article, vehicle (DMSO concentration matched to test articles). At the end of each CCRC, theophylline (2.2 mM) was added to induce maximal relaxation of the tissue. […] Airways were re-tensioned to 1.0 – 1.5 g if the tension had dropped below 1.0 g during the first 30 min of equilibration. (b) Airways were exposed to carbachol (bath concentration 10 μM) in order to measure their contractile responses and then isoprenaline (10 μM) in order to assess their relaxation. Airways were washed out and allowed to return to baseline. (c) Airways were pre-constricted with histamine (10 μM) before conducting a CCRC to the test article, the positive control (isoprenaline), test article vehicle or positive control vehicle.

mouse tracheal rings [5] = assay: Bronchodilation of mouse tracheal rings at differing levels of carbachol pre-contraction; details: for relaxation of airway rings: normalized to theophylline
Method: Standard procedures as listed above were used to prepare, mount and Wake-Up tracheal rings and the concentrations of carbachol providing EC25, EC50, EC75, or EC95 levels of contraction for each ring was determined as described above.

mouse tracheal rings [6] = assay: β-agonist use-dependent desensitization of mouse tracheal rings; details: round 2
Excerpt: Standard procedures were used to prepare and mount tissues.

mouse airway rings = assay: Duration of bronchodilation after washout and carbachol re-challenge, mouse airway rings; details: EC75 carbachol, preliminary
Method: Mouse airway rings were exposed to a typical Wake-Up procedure including the use of KPSS and discovery of EC75 CCh dose responses. However, no isoproterenol was used to observe tissue relaxation as part of the qualification procedure. With pre-contraction with EC75 CCh for >30 min, rings were subjected to a compound dose-response, followed by a complete washout of compound, and re-contracted with EC75 CCh. Traces were recorded for several hours thereafter and normalized to theophylline as control of 100% relaxation.

[7] = supplement, maximum concentration 55.6, read-out: TMEM16A eYFP Assay IC50

Row | SMILES | IC50 Ratio, Wnt/TMEM16A [1] | IC50 (hTMEM16A (abc); [7]) | IC50 [2] | other results
1 | CS(=O)(=O)c1ccc(NC(=O)c2cc(Cl)ccc2O)c(Cl)c1 [Cpd 8] | 1.62 | 4720 nM | 7660 nM | –
2 | O=C(Nc1ccc(Cl)cc1Cl)c1cc(Cl)ccc1O [Cpd 12] | 4.67 | 90 nM | 420 nM | IC50 (hTMEM16A (abc); average, 22-point dose-response, read-out: TMEM16A eYFP Assay (IC50)): 88 nM
3 | CC(=O)c1ccc(NC(=O)c2cc(Cl)ccc2O)cc1 [Cpd 7] | 2.45 | 2620 nM | 6420 nM | –
4 | O=C(Nc1ccc(Cl)c(Cl)c1)c1cc(Cl)ccc1O [Cpd 14] | 8.11 | – | 730 nM | IC50 (hTMEM16A (abc); TMEM16A eYFP Assay IC50, supplement, maximum concentration 55.6): 90 nM
5 | O=C(Nc1cccc(C(F)(F)F)c1)c1cc(Cl)ccc1O [Cpd 9] | 6.85 | 130 nM | 890 nM | –
6 | O=C(Nc1cc(Cl)cc(Cl)c1)c1cc(Cl)ccc1O [Cpd 13] | 3.50 | 200 nM | 700 nM | –
7 | O=C(Nc1ccc(F)cc1)c1cc(Cl)ccc1O [Cpd 16] | 15.36 | 250 nM | 3840 nM | –
8 | CC(C)NCC(O)c1ccc(O)c(O)c1 (stereo not drawn) [Isoproterenol, isoproterenol] | – | – | – | bronchodilation of cytokine-treated airways (mouse tracheal rings [3]): dramatically reduced; time to relax mouse tracheal rings (mouse tracheal rings [4]; EC75 carbachol, 10 nM dose (Supplementary Figure 39)): 2 – 4 min and 2 − 4 min; EC50 (mouse tracheal rings [4]; EC75 carbachol, Exp 1-3, read-out: EC50 relaxation of mouse tracheal rings, individual experiments): 5.9 nM and 7.7 nM; EC50 (mouse tracheal rings [4]; Mus musculus, EC75 carbachol, Exp 1-3, read-out: EC50 relaxation of mouse tracheal rings, individual experiments): 8.1 nM; EC50 (mouse tracheal rings [4]; Mus musculus, pre-contracted with EC75 carbachol, average, read-out: EC50 relaxation of mouse tracheal rings): 7.1 nM; EC50 (human bronchial rings; Homo sapiens, 10 μM histamine, read-out: EC50 bronchodilating histamine precontracted human airways): 30 nM; time to steady-state relaxation of human bronchial rings (human bronchial rings; histamine pre-contracted, 10 or 100 nM): less than 7 min; time to open airways (human bronchial rings; summary): < 7 min; relaxation of airway rings (mouse tracheal rings [5]; EC25 level of carbachol): 100%; bronchodilation of a single maximally contracted ring (mouse tracheal rings [5]; EC95 carbachol, highest dose (1 μM)): 38% and 37.7%; relaxation of airway rings (mouse tracheal rings [5]; EC95 level of carbachol): 42%; % relaxation after second treatment and highest dose (mouse tracheal rings [6]; EC50 carbachol): 78.6%; % relaxation after second treatment and highest dose (mouse tracheal rings [6]; EC75 carbachol): 42.7%; duration of bronchodilation after washout and re-challenge (mouse airway rings): short-acting; also recorded: quickly lost
9 | O=C(Nc1ccccc1Cl)c1cc(Cl)ccc1O [Cpd 11] | 9.24 | 330 nM | 3050 nM | –
10 | O=C(Nc1ccc(F)cc1F)c1cc(Cl)ccc1O [Cpd 17] | 12.97 | 310 nM | 4020 nM | –
11 | O=C(Nc1ccccc1)c1cc(Cl)ccc1O [Cpd 6] | 11.36 | 1040 nM | 11800 nM | –
